Among the data in ChEMBL document CHEMBL1649413, “Structure-activity relationship of 4(5)-aryl-2-amino-1H-imidazoles, N1-substituted 2-aminoimidazoles and imidazo[1,2-a]pyrimidinium salts as inhibitors of biofilm formation by Salmonella typhimurium and Pseudomonas aeruginosa” (J Med Chem, 2011) are inhibition and IC50 values, retold here.

Activity calls are given as the source filed them. No cut-off for these calls is given here. Bounds are passed on as bounds.

The first experiment deals with Salmonella typhimurium. Nature of the experiment: Antimicrobial activity against Salmonella Typhimurium ATCC 14028 assessed as inhibition of planktonic growth at 20 uM at 25 degC after 24 hrs. The experiment is classed as functional, organism-based. As to conditions: Salmonella enterica subsp. enterica serovar Typhimurium.
With `CCCCCn1c(-c2ccccc2)cnc1N`, the inhibition entry is “inactive”.

With `CCCCCCCCCCCCn1c(-c2ccccc2)cnc1N`, the inhibition result was “Active”.

As to `CCCCCCCCCCCCCCn1c(-c2ccccc2)cnc1N`, the inhibition entry was “inactive”.

Regarding `CCCCCCCCCCn1c(-c2ccc(-c3ccccc3)cc2)cnc1N`, the inhibition entry is “inactive”.

The next experiment deals with Salmonella typhimurium. Nature of the experiment: Antimicrobial activity against Salmonella Typhimurium ATCC 14028 assessed as inhibition of planktonic growth at 4 uM at 25 degC after 24 hrs. As to conditions: Salmonella enterica subsp. enterica serovar Typhimurium. It counts as functional, organism-based.
For `CCCCCn1c(-c2ccccc2)cnc1N`, the inhibition result was “inactive”.

`CCCCCCCCCCCCn1c(-c2ccccc2)cnc1N`: the inhibition entry was “inactive”.

For `CCCCCCCCCCn1c(-c2ccc(-c3ccccc3)cc2)cnc1N`, the inhibition entry is “inactive”.

The next experiment has as its system Salmonella typhimurium. Nature of the experiment: Antibiofilm activity in Salmonella Typhimurium ATCC 14028 assessed as inhibition of biofilm formation at 25 degC after 24 hrs. It counts as functional, organism-based, Salmonella enterica subsp. enterica serovar Typhimurium. As to conditions: Salmonella enterica, ATCC 14028, 24 h.
As for `Nc1ncc(-c2ccc(Cl)cc2)n1C1CCC1`, the IC50 (commonly the midpoint of a concentration-inhibition curve) came out at 11.6 µM.

Take `CCCCCn1c(-c2ccccc2)cnc1N`: the IC50 turned out to be 48.4 µM.

On to `CCCCCCCCCCCCn1c(-c2ccccc2)cnc1N`, for which the IC50 amounted to 7.1 µM.

For the molecule `CCCCCCCCCCCCCCn1c(-c2ccccc2)cnc1N`, the IC50 turned out to be 8.7 µM.

For `CCCCCCCCCCn1c(-c2ccc(-c3ccccc3)cc2)cnc1N`, the IC50 was 5.7 µM.

As for `Nc1ncc(-c2ccccc2)n1C1CCCCCC1`, the IC50 was 26.9 µM.

With `CCCCCCCCCCCCCCn1c(-c2ccc(Cl)cc2)cnc1N`, the IC50 stood at 453 µM.

For the molecule `Nc1ncc(-c2ccccc2)n1C1CCCCC1`, the IC50 was found to be 85.2 µM.

A further experiment deals with Salmonella typhimurium. Nature of the experiment: Antimicrobial activity against Salmonella Typhimurium ATCC 14028 assessed as inhibition of planktonic growth at 10 uM at 25 degC after 24 hrs. It counts as functional, organism-based. As to conditions: Salmonella enterica subsp. enterica serovar Typhimurium.
In the case of `Nc1ncc(-c2ccc(Cl)cc2)n1C1CCC1`, the inhibition entry was “inactive”.

As to `CCCCCn1c(-c2ccccc2)cnc1N`, the inhibition result was “inactive”.

For the molecule `CCCCCCCCCCCCn1c(-c2ccccc2)cnc1N`, the inhibition result is “Active”.

Regarding `CCCCCCCCCCCCCCn1c(-c2ccccc2)cnc1N`, the inhibition entry is “inactive”.

The subject of the next experiment is Pseudomonas aeruginosa. As to the kind of experiment: Antimicrobial activity against Pseudomonas aeruginosa assessed as inhibition of planktonic growth at 80 uM at 25 degC after 24 hrs. It counts as functional, organism-based.
Settings: not given
Regarding `Nc1ncc(-c2ccc(Cl)cc2)n1C1CCC1`, the inhibition result was “Active”.

`CCCCCn1c(-c2ccccc2)cnc1N`: the inhibition entry was “inactive”.

`CCCCCCCCCCCCn1c(-c2ccccc2)cnc1N`: the inhibition entry is “inactive”.

Regarding `CCCCCCCCCCCCCCn1c(-c2ccccc2)cnc1N`, the inhibition result is “inactive”.

On to `CCCCCCCCCCn1c(-c2ccc(-c3ccccc3)cc2)cnc1N`, for which the inhibition entry is “inactive”.

Regarding `Nc1ncc(-c2ccccc2)n1C1CCCCCC1`, the inhibition result is “inactive”.

As for `CCCCCCCCCCCCCCn1c(-c2ccc(Cl)cc2)cnc1N`, the inhibition entry is “inactive”.

Take `Nc1ncc(-c2ccccc2)n1C1CCCCC1`: the inhibition result is “inactive”.

A further experiment concerns Pseudomonas aeruginosa. As to the kind of experiment: Antibiofilm activity in Pseudomonas aeruginosa assessed as inhibition of biofilm formation at 25 degC after 24 hrs. It counts as functional, organism-based.
Settings: not given
For `Nc1ncc(-c2ccc(Cl)cc2)n1C1CCC1`, the IC50 was 6 µM.

For `CCCCCn1c(-c2ccccc2)cnc1N`, the IC50 was 2.1 µM.

As for `CCCCCCCCCCCCn1c(-c2ccccc2)cnc1N`, the IC50 stood at 12.8 µM.

Regarding `CCCCCCCCCCCCCCn1c(-c2ccccc2)cnc1N`, the concentration for half-maximal inhibition (IC50) was found to be 9.8 µM.

Regarding `CCCCCCCCCCn1c(-c2ccc(-c3ccccc3)cc2)cnc1N`, the IC50 was over 400 µM.

For `Nc1ncc(-c2ccccc2)n1C1CCCCCC1`, the IC50 worked out at 14.2 µM.

Regarding `CCCCCCCCCCCCCCn1c(-c2ccc(Cl)cc2)cnc1N`, the IC50 is 19.1 µM.

`Nc1ncc(-c2ccccc2)n1C1CCCCC1`: the IC50 was 4.6 µM.

In the next experiment the test system is Salmonella typhimurium. Nature of the experiment: Antimicrobial activity against Salmonella Typhimurium ATCC 14028 assessed as inhibition of planktonic growth at 80 uM at 25 degC after 24 hrs. The conditions noted are these: Salmonella enterica subsp. enterica serovar Typhimurium. It counts as functional, organism-based.
Regarding `Nc1ncc(-c2ccc(Cl)cc2)n1C1CCC1`, the inhibition result was “Active”.

`CCCCCn1c(-c2ccccc2)cnc1N`: the inhibition result was “Active”.

Take `CCCCCCCCCCCCCCn1c(-c2ccccc2)cnc1N`: the inhibition result was “inactive”.

In a further experiment the test system is Pseudomonas aeruginosa. As to the kind of experiment: Antimicrobial activity against Pseudomonas aeruginosa assessed as inhibition of planktonic growth at 5 uM at 25 degC after 24 hrs. The experiment is classed as functional, organism-based.
Settings: not given
For `Nc1ncc(-c2ccc(Cl)cc2)n1C1CCC1`, the inhibition result is “inactive”.

As to `CCCCCn1c(-c2ccccc2)cnc1N`, the inhibition result was “inactive”.

As to `CCCCCCCCCCn1c(-c2ccc(-c3ccccc3)cc2)cnc1N`, the inhibition entry was “inactive”.

As for `CCCCCCCCCCCCCCn1c(-c2ccc(Cl)cc2)cnc1N`, the inhibition entry is “inactive”.

As to `Nc1ncc(-c2ccccc2)n1C1CCCCC1`, the inhibition result is “inactive”.

In a further experiment the test system is Pseudomonas aeruginosa. As to the kind of experiment: Antimicrobial activity against Pseudomonas aeruginosa assessed as inhibition of planktonic growth at 10 uM at 25 degC after 24 hrs. It counts as functional, organism-based.
Settings: not given
Take `CCCCCn1c(-c2ccccc2)cnc1N`: the inhibition entry was “inactive”.

`CCCCCCCCCCCCn1c(-c2ccccc2)cnc1N`: the inhibition entry is “inactive”.

For `CCCCCCCCCCCCCCn1c(-c2ccccc2)cnc1N`, the inhibition entry was “inactive”.

Take `Nc1ncc(-c2ccccc2)n1C1CCCCCC1`: the inhibition entry is “inactive”.

A further experiment has as its system Pseudomonas aeruginosa. As to the kind of experiment: Antimicrobial activity against Pseudomonas aeruginosa assessed as inhibition of planktonic growth at 40 uM at 25 degC after 24 hrs. The experiment is classed as functional, organism-based.
Settings: not given
Take `Nc1ncc(-c2ccc(Cl)cc2)n1C1CCC1`: the inhibition entry is “inactive”.

On to `CCCCCn1c(-c2ccccc2)cnc1N`, for which the inhibition result was “inactive”.

Regarding `CCCCCCCCCCCCn1c(-c2ccccc2)cnc1N`, the inhibition result was “inactive”.

For the molecule `CCCCCCCCCCCCCCn1c(-c2ccccc2)cnc1N`, the inhibition result is “inactive”.

For `CCCCCCCCCCn1c(-c2ccc(-c3ccccc3)cc2)cnc1N`, the inhibition result was “inactive”.

For the molecule `Nc1ncc(-c2ccccc2)n1C1CCCCCC1`, the inhibition entry is “inactive”.

In the case of `CCCCCCCCCCCCCCn1c(-c2ccc(Cl)cc2)cnc1N`, the inhibition result was “inactive”.

In the case of `Nc1ncc(-c2ccccc2)n1C1CCCCC1`, the inhibition result was “inactive”.

Another experiment has as its system Salmonella typhimurium. Nature of the experiment: Antimicrobial activity against Salmonella Typhimurium ATCC 14028 assessed as inhibition of planktonic growth at 40 uM at 25 degC after 24 hrs. As to conditions: Salmonella enterica subsp. enterica serovar Typhimurium. It counts as functional, organism-based.
For `Nc1ncc(-c2ccc(Cl)cc2)n1C1CCC1`, the inhibition entry is “Active”.

Take `CCCCCn1c(-c2ccccc2)cnc1N`: the inhibition entry is “inactive”.

Take `CCCCCCCCCCCCCCn1c(-c2ccccc2)cnc1N`: the inhibition result is “inactive”.

As for `CCCCCCCCCCn1c(-c2ccc(-c3ccccc3)cc2)cnc1N`, the inhibition entry was “inactive”.
